According to patent publication US6509328B1, “Glutamate receptor antagonists” (Hoffmann-La Roche Inc., priority 1999, dated 2003):

| Compound | melting point |
| --- | --- |
| CC(=O)N1CC=C(C#Cc2ccc3c(c2)NC(=O)CC(c2cccc(C#N)c2)=N3)CC1 [Example 141, 3-[7-(1-Acetyl-1,2,3,6-tetrahydro-pyridin-4-ylethynyl)-4-oxo-4,5-dihydro-3H-benzo[b][1,4]diazepin-2-yl]-benzonitrile] | 203 °C |
| O=C1CC(c2cccc(C(F)(F)F)c2)=Nc2ccc(-c3ccc(OCc4ccccc4)nc3)cc2N1 [Example 42, 8-(6-Benzyloxy-pyridin-3-yl)-4-(3-trifluoromethyl-phenyl)-1,3-dihydro-benzo [b][1,4]diazepin-2-one] | 195 °C (dec.) |
| Cc1ccc(C#Cc2ccc3c(c2)NC(=O)CC(c2cccc(C#N)c2)=N3)cc1 [Example 3, 3-(4-Oxo-7-p-tolylethynyl-4,5-dihydro-3H-benzo[b][1,4]diazepin-2-yl)-benzonitrile] | 236 to 239 °C (dec.) |
| N#Cc1cccc(C2=Nc3ccc(-c4cccc5ccccc45)cc3NC(=O)C2)c1 [Example 20, 3-(7-Naphthalen-1-yl-4-oxo-4,5-dihydro-3H-benzo[b][1,4]diazepin-2-yl)-benzonitrile] | 240 to 245 °C (dec.) |
| N#Cc1ccc(C2=Nc3ccc(-c4ccccc4F)cc3NC(=O)C2)s1 [Example 100, 5-[7-(2-Fluoro-phenyl)-4-oxo-4,5-dihydro-3H-benzo [b][1,4]diazepin-2-yl]-thiophene-2-carbonitrile] | > 250 °C |
| O=C1CC(c2cccc(Cl)c2)=Nc2ccc(C(=O)c3ccccc3)cc2N1 [Example 35, 8-Benzoyl-4-(3-chloro-phenyl)-1,3-dihydro-benzo [b][1,4]diazepin-2-one] | 199 to 202 °C (dec.) |
| N#Cc1cccc(C2=Nc3ccc(C#Cc4nccs4)cc3NC(=O)C2)c1 [Example 21, 3-(4-Oxo-7-thiazol-2-ylethynyl-4,5-dihydro-3H-benzo[b][1,4]diazepin-2-yl)-benzonitrile] | 230 °C (dec.) |
| O=C1CC(c2cccc(-n3ccnn3)c2)=Nc2ccc(C#Cc3ccc(F)cc3)cc2N1 [Example 115, 8-(4-Fluoro-phenylethynyl)-4-(3-[1,2,3]triazol-1-yl-phenyl)-1,3-dihydro-benzo[b][1,4]diazepin-2-one] | 246 to 248 °C |
| COc1cccc(-c2ccc3c(c2)NC(=O)CC(c2cccc(C#N)c2)=N3)c1 [Example 39, 3-[7-(3-Methoxy-phenyl)-4-oxo-4,5-dihydro-3H-benzo [b][1,4]diazepin-2-yl]-benzonitrile] | 240 to 243 °C (dec.) |
| Cc1csc(-c2cccc(C3=Nc4ccc(-c5ccc(F)cc5)cc4NC(=O)C3)c2)n1 [Example 152, 8-(4-Fluoro-phenyl)-4-[3-(4-methyl-thiazol-2-yl)-phenyl]-1,3-dihydro-benzo [b][1,4]diazepin-2-one] | 259 to 261 °C (dec.) |
| CS(=O)(=O)N1CC=C(c2ccc3c(c2)NC(=O)CC(c2cccc(C#N)c2)=N3)CC1 [Example 46, 3-[7-(1-Methanesulfonyl-1,2,3,6-tetrahydro-pyridin-4-yl)-4-oxo-4,5-dihydro-3H-benzo [b][1,4]diazepin-2-yl]-benzonitrile] | 211 to 213 °C (dec.) |
| N#Cc1cccc(C2=Nc3ccc(-c4cc(F)ccc4F)cc3NC(=O)C2)c1 [Example 125, 3-[7-(2,5-Difluoro-phenyl)-4-oxo-4,5-dihydro-3H-benzo [b][1,4]diazepin-2-yl]-benzonitrile] | 247 °C |
| NC(=O)c1cccc(C2=Nc3ccc(C#Cc4ccccc4)cc3NC(=O)C2)c1 [Example 148, 3-(4-Oxo-7-phenylethynyl-4,5-dihydro-3H-benzo [b][1,4]diazepin-2-yl)-benzamide] | > 250 °C (dec.) |
| NC(=S)c1cccc(C2=Nc3ccc(-c4ccccc4F)cc3NC(=O)C2)c1 [Example 150, 3-[7-(2-Fluoro-phenyl)-4-oxo-4,5-dihydro-3H-benzo[b][1,4]diazepin-2-yl]-thiobenzamide] | 232 to 234 °C (dec.) |
| CC(C)c1ccc2c(c1)NC(=O)CC(c1ccnc(C#N)c1)=N2 [Example 105, 4-(7-Isopropyl-4-oxo-4,5-dihydro-3H-benzo [b][1,4]diazepin-2-yl)-pyridine-2-carbonitrile] | 173 to 178 °C |
| C#Cc1cccc(C2=Nc3ccc(C#Cc4ccccc4)cc3NC(=O)C2)c1 [Example 133, 4-(3-Ethynyl-phenyl)-8-phenylethynyl-1,3-dihydro-benzo[b][1,4]diazepin-2-one] | > 250 °C (dec.) |
| N#Cc1cccc(C2=Nc3ccc(CCc4ccccc4)cc3NC(=O)C2)c1 [Example 108, 3-(4-Oxo-7-phenethyl-4,5-dihydro-3H-benzo[b][1,4]diazepin-2-yl)-benzonitrile] | 212 to 214 °C |
| Cc1cn(-c2cccc(C3=Nc4ccc(C#Cc5ccccc5)cc4NC(=O)C3)c2)c(C)n1 [Example 90, 4-[3-(2,4-Dimethyl-imidazol-1-yl)-phenyl]-8-phenylethynyl-1,3-dihydro-benzo[b][1,4]diazepin-2-one] | 134 °C (dec.) |
| N#Cc1cccc(C2=Nc3ccc(-c4ccc(Cl)c(Cl)c4)cc3NC(=O)C2)c1 [Example 31, 3-[7-(3,4-Dichloro-phenyl)-4-oxo-4,5-dihydro-3H-benzo [b][1,4]diazepin-2-yl]-benzonitrile] | 252 to 255 °C (dec.) |
| N#Cc1cccc(C2=Nc3ccc(-c4cccc(F)c4)cc3NC(=O)C2)c1 [Example 96, 3-[7-(3-Fluoro-phenyl)-4-oxo-4,5-dihydro-3H-benzo [b][1,4]diazepin-2-yl]-benzonitrile] | 232 to 235 °C |
| N#Cc1ccc(-c2ccc3c(c2)NC(=O)CC(c2cccc(-n4ccnc4)c2)=N3)cc1 [Example 66, 4-[2-(3-Imidazol-1-yl-phenyl)-4-oxo-4,5-dihydro-3H-benzo [b][1,4]diazepin-7-yl]-benzonitrile] | 209 to 213 °C (dec.) |
| O=C1CC(c2cccc(-c3nc(C(=O)NCCO)cs3)c2)=Nc2ccc(-c3ccc(F)cc3)cc2N1 [Example 161, 2-{3-[7-(4-Fluoro-phenyl)-4-oxo-4,5-dihydro-3H-benzo [b][1,4]diazepin-2-yl]-phenyl}-thiazole-4-carboxylic Acid (2-hydroxy-ethyl)-amide] | 238 to 245 °C (dec.) |
| Cc1cc(-c2cccc(C3=Nc4ccc(-c5ccccc5F)cc4NC(=O)C3)c2)on1 [Example 127, 8-(2-Fluoro-phenyl)-4-[3-(3-methyl-isoxazol-5-yl)-phenyl]-1,3-dihydro-benzo-[b][1,4]diazepin-2-one] | 222 to 224 °C |
| O=C1CC(c2sccc2Cl)=Nc2ccc(-c3ccccn3)cc2N1 [Example 23, 4-(3-Chloro-thiophen-2-yl)-8-pyridin-2-yl-1,3-dihydro-benzo[b][1,4]diazepin-2-one] | 220 to 225 °C (dec.) |
| O=C1CC(c2sccc2Cl)=Nc2ccc(-c3ccc(F)cc3)cc2N1 [Example 91, 4-(3-Chloro-thiophen-2-yl)-8-(4-fluoro-phenyl)-1,3-dihydro-benzo [b][1,4]diazepin-2-one] | 255 to 256 °C |
| N#Cc1cc(C2=Nc3ccc(C4CC4)cc3NC(=O)C2)ccn1 [Example 112, 4-(7-Cyclopropyl-4-oxo-4,5-dihydro-3H-benzo[b][1,4]diazepin-2-yl)-pyridine-2-carbonitrile] | 227 to 230 °C |
| N#Cc1cccc(C2=Nc3ccc(C#CC4=CCNCC4)cc3NC(=O)C2)c1 [Example 140, 3-[4-Oxo-7-(1,2,3,6-tetrahydro-pyridin-4-ylethynyl)-4,5-dihydro-3H-benzo [b][1,4]diazepin-2-yl]-benzonitrile] | 184 °C |
| O=C1CC(c2cccc(-n3ccnc3)c2)=Nc2ccc(C#Cc3ccccc3F)cc2N1 [Example 63, 8-(2-Fluoro-phenylethynyl)-4-(3-imidazol-1-yl-phenyl)-1,3-dihydro-benzo [b][1,4]diazepin-2-one] | 201 to 203 °C |
| N#Cc1cccc(C2=Nc3ccc(-c4ccccc4)cc3NC(=O)C2)c1 [Example 10, 3-(4-Oxo-7-phenyl-4,5-dihydro-3H-benzo[b][1,4]diazepin-2-yl)-benzonitrile] | 238 to 240 °C (dec.) |
| O=C1CC(c2cccc(-n3cncn3)c2)=Nc2ccc(-c3ccc(F)cc3)cc2N1 [Example 64, 8-(4-Fluoro-phenyl)-4-(3-[1,2,4]triazol-1-yl-phenyl)-1,3-dihydro-benzo [b][1,4]diazepin-2-one] | 241 to 245 °C |
